Data published in article PMC11191687.

Assay: lactamisation (head-to-tail or side-chain-to-tail) of unprotected peptide acyl azide (from hydrazide, 20 equiv NaNO2, pH 3, -15 C, then NaHCO3 to pH ~7), MeCN cosolvent
Conditions: aq phosphate buffer (6 M GdmCl) diluted with 2 vol 50% MeCN/water, 2.2 mM, 2 steps

Structure (SMILES): CCCCC(C)CCC(=O)N[C@@H](CCN)C(=O)N[C@H](C(=O)N[C@@H](CCN)C(=O)N[C@H]1CCNC(=O)[C@H]([C@@H](C)O)NC(=O)[C@H](CCN)NC(=O)[C@H](CCN)NC(=O)[C@H](CC(C)C)NC(=O)[C@@H](CC(C)C)NC(=O)[C@H](CCN)NC1=O)[C@@H](C)O (stereo partly shown)
- ring closure, conversion by HPLC (from CCCCC(C)CCC(=O)N[C@@H](CCN)C(=O)N[C@H](C(=O)N[C@@H](CCN)C(=O)N[C@@H](CCN)C(=O)N[C@@H](CCN)C(=O)N[C@H](CC(C)C)C(=O)N[C@@H](CC(C)C)C(=O)N[C@@H](CCN)C(=O)N[C@@H](CCN)C(=O)N[C@H](C(=O)N=[N+]=[N-])[C@@H](C)O)[C@@H](C)O, 23-membered ring, 0.017 h): 56%

Structure (SMILES): CC[C@H](C)[C@@H]1NC(=O)CNC(=O)[C@H](CO)NC(=O)[C@@H]2CCCN2C(=O)[C@H](C(C)C)NC(=O)[C@@H]2CCCN2C(=O)CNC(=O)[C@H](Cc2ccccc2)NC1=O [H-Pro-Val-Pro-Ser-Gly-Ile-Phe-Gly-N3]
- ring closure, conversion by HPLC (from CC[C@H](C)[C@H](NC(=O)CNC(=O)[C@H](CO)NC(=O)[C@@H]1CCCN1C(=O)[C@@H](NC(=O)[C@@H]1CCCN1)C(C)C)C(=O)N[C@@H](Cc1ccccc1)C(=O)NCC(=O)N=[N+]=[N-], 24-membered ring, 1.67 h): 58%

Structure (SMILES): CSCC[C@@H]1NC(=O)[C@H](C(C)C)NC(=O)[C@H](CC(C)C)NC(=O)CNC(=O)[C@@H]2CCCN2C(=O)[C@H](C(C)C)NC(=O)CNC(=O)[C@H](Cc2ccccc2)NC1=O [H-Phe-Gly-Val-Pro-Gly-Leu-Val-Met-N3]
- ring closure, conversion by HPLC (from CSCC[C@H](NC(=O)[C@@H](NC(=O)[C@H](CC(C)C)NC(=O)CNC(=O)[C@@H]1CCCN1C(=O)[C@@H](NC(=O)CNC(=O)[C@@H](N)Cc1ccccc1)C(C)C)C(C)C)C(=O)N=[N+]=[N-], 24-membered ring, 0.35 h): 38%

Structure (SMILES): C=CC[C@@H]1NC(=O)[C@H](CC(C)C)NC(=O)[C@H](CC(C)C)N(C)C(=O)[C@H](C)NC(=O)[C@H](Cc2ccc(O)c([N+](=O)[O-])c2)NC(=O)[C@H](CC(C)C)N(C)C(=O)[C@H](Cc2cn(C)c3ccccc23)NC1=O [H-Leu-allylGly-Trp(1-Me)-N-Me-Leu-Tyr(3-NO2)-Ala-N-Me-Leu-N3]
- ring closure, conversion by HPLC (from C=CC[C@H](NC(=O)[C@@H](N)CC(C)C)C(=O)N[C@@H](Cc1cn(C)c2ccccc12)C(=O)N(C)[C@@H](CC(C)C)C(=O)N[C@@H](Cc1ccc(O)c([N+](=O)[O-])c1)C(=O)N[C@@H](C)C(=O)N(C)[C@@H](CC(C)C)C(=O)N=[N+]=[N-], 21-membered ring, 1.35 h): 20%

Structure (SMILES): CC(C)C[C@H]1C(=O)N[C@@H](C)C(=O)N[C@@H](C)C(=O)N(C)[C@@H](CC(C)C)C(=O)N[C@@H](C)C(=O)NCC(=O)N[C@@H](C)C(=O)N1C [H-Ala-N-Me-Leu-Ala-Ala-N-Me-Leu-Ala-Gly-N3]
- ring closure, conversion by HPLC (from CC(C)C[C@@H](C(=O)N[C@@H](C)C(=O)N[C@@H](C)C(=O)N(C)[C@@H](CC(C)C)C(=O)N[C@@H](C)C(=O)NCC(=O)N=[N+]=[N-])N(C)C(=O)[C@H](C)N, 21-membered ring, 0.35 h): 90%

Structure (SMILES): CC(C)C[C@@H]1NC(=O)[C@H](CCCN)NC(=O)[C@H](C(C)C)NC(=O)[C@@H]2CCCN2C(=O)[C@@H](Cc2ccccc2)NC(=O)[C@H](CC(C)C)NC(=O)[C@H](CCCN)NC(=O)[C@H](C(C)C)NC(=O)[C@@H]2CCCN2C(=O)[C@@H](Cc2ccccc2)NC1=O [H-D-Phe-Pro-Val-Orn-Leu-D-Phe-Pro-Val-Orn-Leu-N3]
- ring closure, conversion by HPLC (from CC(C)C[C@H](NC(=O)[C@H](CCCN)NC(=O)[C@@H](NC(=O)[C@@H]1CCCN1C(=O)[C@@H](Cc1ccccc1)NC(=O)[C@H](CC(C)C)NC(=O)[C@H](CCCN)NC(=O)[C@@H](NC(=O)[C@@H]1CCCN1C(=O)[C@H](N)Cc1ccccc1)C(C)C)C(C)C)C(=O)N=[N+]=[N-], 30-membered ring, 0.33 h): 92%

Structure (SMILES): C=CC[C@@H]1NC(=O)[C@H](CC(C)C)NC(=O)[C@H](CC(C)C)N(C)C(=O)[C@H](C)NC(=O)[C@H](Cc2ccc(O)c([N+](=O)[O-])c2)NC(=O)[C@H](CC(C)C)N(C)C(=O)[C@H](Cc2cn(C)c3ccccc23)NC1=O [H-allylGly-Trp(1-Me)-N-Me-Leu-Tyr(3-NO2)-Ala-N-Me-Leu-Leu-N3]
- ring closure, conversion by HPLC (from C=CC[C@H](N)C(=O)N[C@@H](Cc1cn(C)c2ccccc12)C(=O)N(C)[C@@H](CC(C)C)C(=O)N[C@@H](Cc1ccc(O)c([N+](=O)[O-])c1)C(=O)N[C@@H](C)C(=O)N(C)[C@@H](CC(C)C)C(=O)N[C@@H](CC(C)C)C(=O)N=[N+]=[N-], 21-membered ring, 0.35 h): 59%

Structure (SMILES): C=CC[C@@H]1NC(=O)[C@H](CC(C)C)NC(=O)[C@H](CC(C)C)N(C)C(=O)[C@H](C)NC(=O)[C@H](Cc2ccc(O)c([N+](=O)[O-])c2)NC(=O)[C@H](CC(C)C)NC(=O)[C@H](Cc2cn(C(C)(C)C=C)c3ccccc23)NC1=O
- ring closure, conversion by HPLC (from C=CC[C@H](NC(=O)[C@H](CC(C)C)NC(=O)[C@H](CC(C)C)N(C)C(=O)[C@H](C)NC(=O)[C@H](Cc1ccc(O)c([N+](=O)[O-])c1)NC(=O)[C@H](CC(C)C)NC(=O)[C@@H](N)Cc1cn(C(C)(C)C=C)c2ccccc12)C(=O)N=[N+]=[N-], 21-membered ring, 0.27 h): < 50%

Structure (SMILES): C=CC[C@@H]1NC(=O)[C@H](CC(C)C)NC(=O)[C@H](CC(C)C)NC(=O)[C@H](C)NC(=O)[C@H](Cc2ccc(O)c([N+](=O)[O-])c2)NC(=O)[C@H](CC(C)C)NC(=O)[C@H](Cc2cn(C(C)(C)C=C)c3ccccc23)NC1=O
- ring closure, conversion by HPLC (from C=CC[C@H](NC(=O)[C@H](CC(C)C)NC(=O)[C@H](CC(C)C)NC(=O)[C@H](C)NC(=O)[C@H](Cc1ccc(O)c([N+](=O)[O-])c1)NC(=O)[C@H](CC(C)C)NC(=O)[C@@H](N)Cc1cn(C(C)(C)C=C)c2ccccc12)C(=O)N=[N+]=[N-], 21-membered ring): 0%

Structure (SMILES): CC(C)C[C@H]1C(=O)N[C@@H](C)C(=O)N[C@@H](C)C(=O)N[C@@H](C)C(=O)N(C)[C@@H](CC(C)C)C(=O)N[C@@H](C)C(=O)N[C@@H](C)C(=O)N1C [H-Ala-N-Me-Leu-Ala-Ala-N-Me-Leu-Ala-Ala-N3]
- ring closure, conversion by HPLC (from CC(C)C[C@@H](C(=O)N[C@@H](C)C(=O)N[C@@H](C)C(=O)N(C)[C@@H](CC(C)C)C(=O)N[C@@H](C)C(=O)N[C@@H](C)C(=O)N=[N+]=[N-])N(C)C(=O)[C@H](C)N, 21-membered ring, 0.35 h): 89%

Structure (SMILES): CC(=O)N[C@@H](Cc1ccccc1)C(=O)N[C@H]1CCCNC(=O)[C@H](CCCNC(=N)N)NC(=O)[C@H](Cc2c[nH]c3ccccc23)NC(=O)[C@@H](Cc2ccc(O)cc2)NC(=O)[C@@H]2CCCN2C1=O [Ac-Phe-Orn(cyclises via side chain)-Pro-D-Tyr-Trp-Arg-N3]
- ring closure, conversion by HPLC (from CC(=O)N[C@@H](Cc1ccccc1)C(=O)N[C@@H](CCCN)C(=O)N1CCC[C@H]1C(=O)N[C@H](Cc1ccc(O)cc1)C(=O)N[C@@H](Cc1c[nH]c2ccccc12)C(=O)N[C@@H](CCCNC(=N)N)C(=O)N=[N+]=[N-], 18-membered ring, 0.35 h): 95%

Structure (SMILES): C[C@@H]1NC(=O)[C@H](C)NC(=O)[C@@H]2CCCN2C(=O)[C@H](C)NC(=O)[C@H](C)NC(=O)[C@@H]2CCCN2C(=O)[C@H](C)NC1=O [H-Ala-Pro-Ala-Ala-Pro-Ala-Ala-N3]
- ring closure, conversion by HPLC (from C[C@H](N)C(=O)N1CCC[C@H]1C(=O)N[C@@H](C)C(=O)N[C@@H](C)C(=O)N1CCC[C@H]1C(=O)N[C@@H](C)C(=O)N[C@@H](C)C(=O)N=[N+]=[N-], 21-membered ring, 0.68 h): 80%

Structure (SMILES): C=CC[C@@H]1NC(=O)[C@H](CC(C)C)NC(=O)[C@H](CC(C)C)NC(=O)[C@H](C)NC(=O)[C@H](Cc2ccc(O)c([N+](=O)[O-])c2)NC(=O)[C@H](CC(C)C)N(C)C(=O)[C@H](Cc2cn(C(C)(C)C=C)c3ccccc23)NC1=O
- ring closure, conversion by HPLC (from C=CC[C@H](NC(=O)[C@H](CC(C)C)NC(=O)[C@H](CC(C)C)NC(=O)[C@H](C)NC(=O)[C@H](Cc1ccc(O)c([N+](=O)[O-])c1)NC(=O)[C@H](CC(C)C)N(C)C(=O)[C@@H](N)Cc1cn(C(C)(C)C=C)c2ccccc12)C(=O)N=[N+]=[N-], 21-membered ring, 0.27 h): < 50%

Structure (SMILES): CC(C)C[C@@H]1NC(=O)[C@H](Cc2ccc(O)cc2)NC(=O)[C@@H]2CCCN2C(=O)CNC(=O)[C@H](C)NC1=O [H-Gly-Pro-Tyr-Leu-Ala-N3]
- ring closure, conversion by HPLC (from CC(C)C[C@H](NC(=O)[C@H](Cc1ccc(O)cc1)NC(=O)[C@@H]1CCCN1C(=O)CN)C(=O)N[C@@H](C)C(=O)N=[N+]=[N-], 15-membered ring, 0.35 h): 77%

Structure (SMILES): C[C@@H]1NC(=O)CN(C)C(=O)[C@H](C)NC(=O)[C@H](C)NC(=O)CN(C)C(=O)[C@H](C)NC(=O)[C@H](C)NC1=O [H-Ala-Sar-Ala-Ala-Sar-Ala-Ala-N3]
- ring closure, conversion by HPLC (from C[C@H](N)C(=O)N(C)CC(=O)N[C@@H](C)C(=O)N[C@@H](C)C(=O)N(C)CC(=O)N[C@@H](C)C(=O)N[C@@H](C)C(=O)N=[N+]=[N-], 21-membered ring, 0.35 h): 96%

Structure (SMILES): CC(C)C[C@@H]1NC(=O)[C@H](CCCN)NC(=O)[C@H](C(C)C)NC(=O)[C@H](Cc2ccc(O)cc2)NC(=O)[C@H](CCC(N)=O)NC(=O)[C@H](CC(N)=O)NC(=O)[C@@H](Cc2ccccc2)NC(=O)[C@H](Cc2ccccc2)NC(=O)[C@@H]2CCCN2C(=O)[C@@H](Cc2ccccc2)NC1=O [H-D-Phe-Pro-Phe-D-Phe-Asn-Gln-Tyr-Val-Orn-Leu-N3]
- ring closure, conversion by HPLC (from CC(C)C[C@H](NC(=O)[C@H](CCCN)NC(=O)[C@@H](NC(=O)[C@H](Cc1ccc(O)cc1)NC(=O)[C@H](CCC(N)=O)NC(=O)[C@H](CC(N)=O)NC(=O)[C@@H](Cc1ccccc1)NC(=O)[C@H](Cc1ccccc1)NC(=O)[C@@H]1CCCN1C(=O)[C@H](N)Cc1ccccc1)C(C)C)C(=O)N=[N+]=[N-], 30-membered ring, 0.33 h): 95%
